The test concerns the target T1, recombinant human mGluR2 (Homo sapiens, UniProt Q14416).
T1 construct: expressed in transfected cells
In words: FLIPR Ca2+ mobilization assay, potentiation of mGluR2. The settings on record: potentiation with EC20 glutamate (900 nM); CHO dhfr- cells expressing human mGluR2 and Gα16. Format: cell-based. As to the method: Potencies are determined as follows. The compounds of the present invention may be tested in a fluorescence laser imaging plate reader (FLIPR) based assay. This assay is a common functional assay to monitor Ca^2+ mobilization in whole cells expressing recombinant receptor coupled with a promiscuous G-protein. CHO dhfr-cells stably expressing recombinant human mGluR2 and Gα16 loaded with Fluo-4 AM (Invitrogen, Carlsbad Calif.) are treated with varying concentrations of compounds and the Ca^2+ response is monitored on a FLIPR384 (Molecular Devices, Sunnydale Calif.) for agonist activity. The potentiation response is monitored after a subsequent addition of an EC20 concentration of glutamate (900 nM). The maximum calcium response at each concentration of compound for agonism or potentiation are plotted as dose responses curves fitted with a four parameters logistic equation giving EC50 and Hill coefficient using the iterative non linear curve fitting software program.
For orientation: Calcium flux is commonly read through the fluorescence of an indicator in the cells.
T1 sequence (Q14416 19-872): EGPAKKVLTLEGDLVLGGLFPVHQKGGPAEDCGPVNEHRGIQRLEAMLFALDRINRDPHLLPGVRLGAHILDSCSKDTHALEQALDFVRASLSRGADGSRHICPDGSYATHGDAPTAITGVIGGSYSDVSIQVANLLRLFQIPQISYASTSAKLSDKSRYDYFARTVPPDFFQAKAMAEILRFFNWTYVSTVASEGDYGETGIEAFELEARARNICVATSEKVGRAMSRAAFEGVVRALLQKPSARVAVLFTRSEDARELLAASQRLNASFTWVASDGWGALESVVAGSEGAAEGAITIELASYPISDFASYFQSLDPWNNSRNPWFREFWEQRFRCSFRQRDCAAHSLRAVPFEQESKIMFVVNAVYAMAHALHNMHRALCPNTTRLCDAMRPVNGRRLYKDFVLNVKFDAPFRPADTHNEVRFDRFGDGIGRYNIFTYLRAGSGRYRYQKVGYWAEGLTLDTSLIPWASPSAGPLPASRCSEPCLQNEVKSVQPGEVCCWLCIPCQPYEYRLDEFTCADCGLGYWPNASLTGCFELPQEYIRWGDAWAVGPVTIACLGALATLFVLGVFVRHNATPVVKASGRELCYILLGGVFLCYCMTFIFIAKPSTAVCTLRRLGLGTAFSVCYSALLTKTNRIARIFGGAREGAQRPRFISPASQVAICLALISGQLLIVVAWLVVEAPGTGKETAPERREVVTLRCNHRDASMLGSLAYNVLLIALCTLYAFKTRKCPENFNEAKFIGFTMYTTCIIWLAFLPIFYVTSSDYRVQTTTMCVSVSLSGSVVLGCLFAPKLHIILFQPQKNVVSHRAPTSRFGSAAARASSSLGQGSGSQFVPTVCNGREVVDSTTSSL
As usually defined, the EC50 is the concentration that produces a half-maximal response. As to `CN1C(=O)CN(Cc2ccc(-c3ccc4c(nnn4CC4CC4)c3C(F)(F)F)c(F)n2)C1=O` [Example 1, 1-({5-[1-(Cyclopropylmethyl)-4-(trifluoromethyl)-1H-benzotriazol-5-yl]-6-fluoropyridin-2-yl}methyl)-3-methylimidazolidine-2,4-dione], the EC50 came out at 17.3 nM.
In the case of `CN1C(=O)CN(Cc2ccc(-c3ccc4c(nnn4CC4CC4)c3C(F)(F)F)cc2)C1=O` [Example 2, 1-{4-[1-(Cyclopropylmethyl)-4-(trifluoromethyl)-1H-benzotriazol-5-yl]benzyl}-3-methylimidazolidine-2,4-dione] it was 5.8 nM; in that of `O=C1CN(Cc2ccc(-c3ccc4c(nnn4CC4CC4)c3C(F)(F)F)cc2)C(=O)N1` [Example 4, 1-{4-[1-(Cyclopropylmethyl)-4-(trifluoromethyl)-1H-benzotriazol-5-yl]benzyl}imidazolidine-2,4-dione], 9.21 nM; in that of `C[C@H](O)C(=O)NCc1ccc(-c2ccc3c(nnn3CC3CC3)c2C(F)(F)F)cc1` [Example 5, (2S)—N-{4-[1-(Cyclopropylmethyl)-4-(trifluoromethyl)-1H-benzotriazol-5-yl]benzyl}-2-hydroxypropanamide], 59.1 nM.
In the case of `Cn1c(=O)[nH]n(Cc2ccc(-c3ccc4c(nnn4CC(C)(C)C)c3Br)cc2)c1=O` [Example 7, 1-{4-[4-Bromo-1-(2,2-dimethylpropyl)-1H-benzotriazol-5-yl]benzyl}-4-methyl-1,2,4-triazolidine-3,5-dione] it was 532 nM.
In the case of `CC(C)Cn1nnc2c(Br)c(-c3ccc(CN4CC(=O)N(C)C4=O)cc3)ccc21` [Example 8, 1-{4-[4-Bromo-1-(2-methylpropyl)-1H-benzotriazol-5-yl]benzyl}-3-methylimidazolidine-2,4-dione] it was 3 nM; in that of `CC(C)Cn1nnc2c(C(F)(F)F)c(-c3ccc(CN4CC(=O)N(C)C4=O)cc3)ccc21` [Example 9, 3-Methyl-1-{4-[1-(2-methylpropyl)-4-(trifluoromethyl)-1H-benzotriazol-5-yl]benzyl}imidazolidine-2,4-dione], 6.1 nM; in that of `CN1C(=O)CN(Cc2ccc(-c3ccc4c(nnn4CC4CC4)c3Br)cc2)C1=O` [Example 10, 1-{4-[4-Bromo-1-(cyclopropylmethyl)-1H-benzotriazol-5-yl]benzyl}-3-methylimidazolidine-2,4-dione], 5.3 nM.
As to `CSc1c(-c2ccc(CN3CC(=O)N(C)C3=O)c(F)c2)ccc2c1nnn2CC1CC1` [Example 15, 1-{4-[1-(Cyclopropylmethyl)-4-(methylsulfanyl)-1H-benzotriazol-5-yl]-2-fluorobenzyl}-3-methylimidazolidine-2,4-dione], the EC50 stood at 6.6 nM.
In the case of `CN1C(=O)CN(Cc2ccc(-c3ccc4c(nnn4CC4CC4)c3S(C)(=O)=O)cc2F)C1=O` [Example 16, 1-{4-[1-(Cyclopropylmethyl)-4-(methylsulfonyl)-1H-benzotriazol-5-yl]-2-fluorobenzyl}-3-methylimidazolidine-2,4-dione] it was 245 nM; in that of `CN1C(=O)CN(Cc2ccc(-c3ccc4c(nnn4CC4CC4)c3[S+](C)[O-])cc2F)C1=O` (stereo not shown) [Example 17, 1-{4-[1-(Cyclopropylmethyl)-4-(methylsulfinyl)-1H-benzotriazol-5-yl]-2-fluorobenzyl}-3-methylimidazolidine-2,4-dione], 1250 nM; in that of `CN1C(=O)CN(Cc2ccc(-c3ccc4c(nnn4CC4CC4)c3C#N)cc2)C1=O` [Example 18, 1-(Cyclopropylmethyl)-5-{4-[(3-methyl-2,4-dioxoimidazolidin-1-yl)methyl]phenyl}-1H-benzotriazole-4-carbonitrile], 39 nM.
In the case of `CCc1c(-c2ccc(CN3CC(=O)N(C)C3=O)cc2)ccc2c1nnn2CC1CC1` [Example 19, 1-{4-[1-(Cyclopropylmethyl)-4-ethyl-1H-benzotriazol-5-yl]benzyl}-3-methylimidazolidine-2,4-dione] it was 7.8 nM; in that of `CN1C(=O)CN(Cc2ccc(-c3ccc4c(nnn4CC4CC4)c3C=O)cc2)C1=O` [Example 20, 1-(Cyclopropylmethyl)-5-{4-[(3-methyl-2,4-dioxoimidazolidin-1-yl)methyl]phenyl}-1H-benzotriazole-4-carbaldehyde], 56 nM.
Under `CN1C(=O)CN(Cc2ccc(-c3ccc4c(nnn4CC4CC4)c3CO)cc2)C1=O` [Example 21, 1-{4-[1-(Cyclopropylmethyl)-4-(hydroxymethyl)-1H-benzotriazol-5-yl]benzyl}-3-methylimidazolidine-2,4-dione] stands 841 nM.
Consider `CN1C(=O)CN(Cc2ccc(-c3ccc4c(nnn4CC4CC4)c3CF)cc2)C1=O` [Example 22, 1-{4-[1-(Cyclopropylmethyl)-4-(fluoromethyl)-1H-benzotriazol-5-yl]benzyl}-3-methylimidazolidine-2,4-dione], for which the EC50 was determined as 14 nM.
Regarding `CN1C(=O)CN(Cc2ccc(-c3ccc4c(c3)nnn4CC3CC3)cc2)C1=O` [Example 28, 1-{4-[1-(Cyclopropylmethyl)-1H-benzotriazol-5-yl]benzyl}-3-methylimidazolidine-2,4-dione], the EC50 amounted to 196 nM.
Under `CN1C(=O)CN(Cc2ccc(-c3ccc4c(nnn4CC4CC4)c3Cl)cc2)C1=O` [Example 29, 1-{4-[4-Chloro-1-(cyclopropylmethyl)-1H-benzotriazol-5-yl]benzyl}-3-methylimidazolidine-2,4-dione] stands 11.4 nM; under `[N-]=[N+]=NCc1ccc(-c2ccc3c(nnn3CC3CC3)c2Cl)cc1` [Example 37, 5-[4-(Azidomethyl)phenyl]-4-chloro-1-(cyclopropylmethyl)-1H-benzotriazole], 53 nM.
As to `NCc1ccc(-c2ccc3c(nnn3CC3CC3)c2Cl)cc1` [Example 38, 1-{4-[4-Chloro-1-(cyclopropylmethyl)-1H-benzotriazol-5-yl]phenyl}methanamine], the EC50 was determined as 2320 nM.
With `C[C@@H](O)C(=O)NCc1ccc(-c2ccc3c(nnn3CC3CC3)c2Cl)cc1` [Example 39, (2R)—N-{4-[4-chloro-1-(cyclopropylmethyl)-1H-benzotriazol-5-yl]benzyl}-2-hydroxypropanamide], the EC50 was found to be 49 nM.
As to `O=C1CN(Cc2ccc(-c3ccc4c(nnn4CC4CC4)c3Cl)cc2)C(=O)N1` [Example 51, 1-{4-[4-Chloro-1-(cyclopropylmethyl)-1H-benzotriazol-5-yl]benzyl}imidazolidine-2,4-dione], the EC50 was 11.4 nM.
In the case of `CC(C)(C)OC(=O)N1CCN(Cc2ccc(-c3ccc4c(nnn4CC4CC4)c3Cl)cc2)CC1` [Example 52, tert-Butyl 4-{4-[4-chloro-1-(cyclopropylmethyl)-1H-benzotriazol-5-yl]benzyl}piperazine-1-carboxylate] it was 80 nM; in that of `Clc1c(-c2ccc(CN3CCNCC3)cc2)ccc2c1nnn2CC1CC1` [Example 71, 4-Chloro-1-(cyclopropylmethyl)-5-[4-(piperazin-1-ylmethyl)phenyl]-1H-benzotriazole], 234 nM.
In the case of `N#CCC(=O)N1CCN(Cc2ccc(-c3ccc4c(nnn4CC4CC4)c3Cl)cc2)CC1` [Example 72, 3-(4-{4-[4-Chloro-1-(cyclopropylmethyl)-1H-benzotriazol-5-yl]benzyl}piperazin-1-yl)-3-oxopropanenitrile] it was 30.4 nM; in that of `CCOC(=O)CNC(=O)NCc1ccc(-c2ccc3c(nnn3CC3CC3)c2Cl)cc1` [Example 83, Ethyl N-({4-[4-chloro-1-(cyclopropylmethyl)-1H-benzotriazol-5-yl]benzyl}carbamoyl)glycinate], 124 nM.
In the case of `O=C1CNC(=O)N1Cc1ccc(-c2ccc3c(nnn3CC3CC3)c2Cl)cc1` [Example 84, 3-{4-[4-Chloro-1-(cyclopropylmethyl)-1H-benzotriazol-5-yl]benzyl}imidazolidine-2,4-dione] it was 34.9 nM; in that of `CN1CC(=O)N(Cc2ccc(-c3ccc4c(nnn4CC4CC4)c3Cl)cc2)C1=O` [Example 85, 3-{4-[4-Chloro-1-(cyclopropylmethyl)-1H-benzotriazol-5-yl]benzyl}-1-methylimidazolidine-2,4-dione], 8.9 nM.

These data come from patent US9139576B2, “Aminomethyl biaryl benzotriazole derivatives” (Merck Sharp & Dohme Corp., priority 2011, dated 2015).
